From patent publication US10813891B2, “Method of inhibiting chronification of pain” (priority 2011, dated 2020)
“Also recorded” adds a separate entry of the source. Where two headings read alike, the source gives them in different places.

Columns and labels:
CCI-ION rats [1] = conditions: cited from earlier work
CCI-ION rats [2] = assay type: in vivo, rat; conditions: rat, in vivo
Experimental: (§1) Male Sprague-Dawley rats (Charles River Laboratories, L'Arbresle, France), weighing 150-200 g on arrival, were used. Animals were maintained under controlled environmental conditions (22±1° C., 60% relative humidity, 12 h/12 h light/dark cycle, food and water ad libitum) starting from reception in the laboratory, for at least 1 week before any intervention or treatment and thereafter, until euthanasia.
Rats were anaesthetized with sodium pentobarbital (50 mg/kg i.p.). Unilateral CCI-ION was performed under direct visual control using a Zeiss microscope (10-25×). Briefly, the head was fixed in a Horsley-Clarke stereotaxic frame and a midline scalp incision was made, exposing skull and nasal bone. The edge of the orbit, formed by the maxillary, frontal, lacrimal, and zygomatic bones, was dissected free. The orbital contents were then gently deflected to give access to the infraorbital nerve which was dissected free at its most rostral extent in the orbital cavity, just caudal to the infraorbital foramen. Only 5 mm of the nerve could be freed, providing the space for placement of two chromic catgut (5-0) ligations tied loosely (with about 2 mm spacing) around it. […] Finally, scalp incision was closed using silk sutures (4-0). In sham-operated rats, the ION was exposed using the same procedure, but was not ligated.
(§2) Tapentadol (1, 3 and 10 mg/kg i.p.), reboxetine (10 mg/kg i.p.), morphine (1 and 3 mg/kg s.c.) or their vehicle (0.9% NaCl) were injected acutely 14 days after surgery, when allodynia/hyperalgesia reached a plateau in both CCI-SN and CCI-ION rats. Behavioral tests were performed at various times for up to 4 h after injection. In drug association procedure, reboxetine or saline was administered 15 min before morphine or saline.
(§3) Subchronic treatment consisted of twice daily injections of tapentadol (10 mg/kg, i.p. at 10:00 am and 6:00 pm) or saline for 4 days starting on the 15th day after nerve ligation in both CCI-ION and CCI-SN rats. Animals were further injected with tapentadol (10 mg/kg i.p.) or saline at 10:00 am the following day (19th day post-surgery), and assessment of allodynia with von Frey filament tests (see below) was made at various times up to 4 hours after this injection. All rats were killed by decapitation 4 hours after the last injection for real-time qRT-PCR determinations of specific mRNAs in ganglia and central tissues (see below).
Rats were placed individually in small (35×20×15 cm) plastic cages for a 2 h habituation period. Before any stimulation session, rats freely explored the observation cage and the testing environments for 2 h. Then mechanical sensitivity was determined with a graded series of […] von Frey filaments (Bioseb, Bordeaux, France). The filaments produced a bending force of 0.40, 0.60, 1.00, 2.00, 4.00, 6.00, 8.00, 10.00 and 12.00 g, respectively. The stimuli were applied within the ION territory (vibrissae pad) three times on the nerve-injured side and then on the contralateral side for a total of 6 applications of each filament per rat, always beginning with the filament producing the lowest force. The von Frey filaments were applied at least 3 seconds after the rat had returned to its initial resting state. For each session, the complete series of von Frey filaments was tested in increasing force order. […] The latter responses represented the highest scores in the rank-ordered response scoring system initially described by Vos et al. (1994). Under our own conditions, the mechanical response threshold was determined as the minimal force filament causing at least one among these responses to at least 2 out of the 3 applications in vibrissae territory. […] To avoid nonspecific responses, only these rats were included in the study.

[3] = system: mice hindpaw after incision; conditions: mouse, in vivo; cited from earlier work
CCI-SN rats [4] = assay type: in vivo, rat; conditions: rat, in vivo
Experimental: as §1
Rats were anaesthetized as above and the common sciatic nerve was exposed. Using a dissection microscope (2× magnification), four chromic catgut (5-0) ligations were tied loosely with about 1 mm spacing, proximally to the sciatic trifurcation (Bennett and Xie, 1988). Finally, the skin and muscle were sewed using silk sutures (4-0). In sham-operated animals, the same surgery was performed, but the nerve was not ligated.
as §2, §3
Before testing, each rat was habituated for 2 h as above, and mechanical sensitivity was then determined with a graded series of […] von Frey filaments, that produced a bending force of 6, 8, 10, 12, 15, 26, and 60 g, respectively. The stimuli were applied within the SN territory (lateral part of the hind paw sole). Each filament was tested three times on the nerve-injured side in increasing order starting with the filament producing the lowest force. As for the CCI-ION rats, the von Frey filaments were applied at least 3 seconds after the rat had returned to its initial resting state. The minimal force filament for which animals presented either a brisk paw withdrawal and/or an escape attempt in response to at least 2 out of the 3 stimulations allowed determination of the mechanical response threshold. The 60.00 g filament was chosen as the cutoff threshold to inhibit any tissue injury.
A—Two weeks after unilateral chronic constriction injury to the sciatic nerve, pressure threshold values (as g) to trigger nocifensive responses to von Frey filaments application onto the plantar surface of ipsilateral hindpaw were determined at various times after acute injection of tapentadol (1, 3 or 10 mg/kg, i.p.) or saline. B—On day 15 (D on abscissa) after nerve ligation, rats were treated subchronically with tapentadol (10 mg/kg, i.p., twice daily, at 10:00 AM and 6:00 PM) or saline for four days. On the following day (day 19 after surgery), both tapentadol- and saline-pretreated CCI-SN rats were injected with tapentadol (10 mg/kg, i.p.; 0 on abscissa) and then subjected to von Frey filaments' test applied to ipsilateral hindpaw for determination of pressure threshold values (as g) at various times thereafter.

CCI-SN rats [5] = conditions: rat, in vivo; cited from earlier work

For `NC1CCN(O)C1=O` (single isomer, unassigned; (+)) [(+)-HA966], the “cephalic neuropathic pain, each drug alone” value (CCI-ION rats [1]; each drug alone) is listed as “inactive”.

For `CN1CC[C@]23c4c5ccc(O)c4O[C@H]2[C@@H](O)C=C[C@H]3[C@H]1C5` [morphine], the “maximum increase in pressure threshold value, as % of that in healthy intact rats” value (CCI-ION rats [2]) is listed as 20%, the incision-induced hyperalgesia [3] is listed as “does not inhibit incision-induced hyperalgesia; also recorded: hyperalgesia is even maintained” and the “effect on CCI-SN-induced mechanical allodynia” value (CCI-SN rats [4]) is listed as “fully reversed CCI-SN-induced mechanical allodynia; also recorded: allodynia was not completely reversed”. For the same compound, the “persistence of reversal of allodynia” value (CCI-SN rats [4]) was “at least one hour”, the “pressure threshold values, either drug alone” value (CCI-SN rats [4]) was “only discrete increases in pressure threshold values” and the “allodynia/hyperalgesia in the hindpaw” value (CCI-SN rats [5]) was “reversed allodynia/hyperalgesia in the hindpaw”. For the same compound, the “allodynia in the vibrissae territory” value (CCI-ION rats [1]; rat, in vivo) was “inactive against allodynia in the vibrissae territory” and the “cephalic neuropathic pain, each drug alone” value (CCI-ION rats [1]; rat, in vivo) was “inactive”.

For `CCOc1ccccc1OC(c1ccccc1)C1CNCCO1` (stereo not shown) [reboxetine], the anti-allodynic effect alone (CCI-ION rats [2]) was “completely inactive on its own” and the “pressure threshold values, either drug alone” value (CCI-SN rats [4]) was “only discrete increases in pressure threshold values”.

For `NC1=N[C@H](O)[C@H]2[C@H]3O[C@]4(O)O[C@@H]([C@@H](O)[C@@]2(N1)[C@@H]4O)[C@]3(O)CO` [tetrodotoxin], the “allodynia/hyperalgesia in the hindpaw” value (CCI-SN rats [5]) is given as “reversed allodynia/hyperalgesia in the hindpaw” and the “allodynia in the vibrissae territory” value (CCI-ION rats [1]; rat, in vivo) is given as “inactive against allodynia in the vibrissae territory”.
